# Measured values published in US5310741A, “TAN-1251 compounds and their production from penicillium thomii” (Takeda Chemical Industries, Ltd., priority 1990, dated 1994).
# Tests used:
# [1] = tested on: mice; test: Acute toxicity, oral administration in mice; type: in vivo; settings: 100 mg/kg
# Experimental: For assessment of the acute toxicity of TAN-1251, an oral administration experiment using TAN-1251A and B was performed in mice.
# [2] = type: physicochemical
# From the text: Below presented as the physicochemical properties of the respective species of TAN-1251 prepared in the Examples given hereinafter.
# [3] = target: Muscarinic receptor; type: binding, Wistar rat; settings: 3H-QNB radioligand, room temperature, 60 minutes; read-out: Radio receptor assay IC50
# [4] = tested on: acetylcholine-induced contraction of the isolated Guinea pig ileum; test: Antagonizing activity against acetylcholine-induced contraction of the isolated Guinea pig ileum; parameters: species or system Guinea pig (Std Hartley); settings: Cavia porcellus, 5 min; acetylcholine 1×10^-7 M, 37° C., 5 minutes equilibration; read-out: Guinea pig ileal contractility ED50 (50% inhibition of the maximal contraction)
# Experimental: (b) Antagonizing activity against acetylcholine-induced contraction of the isolated Guinea pig ileum
# A Guinea pig (Std Hartley, male, 250 g, Japan SLC) deprived of food for 24 hours was subjected to brain concussion and after exsanguination from the carotid artery, the ileum was isolated. An ileal strip, about 3 cm long, was prepared and suspended in a Magnus tube containing 20 ml of Tyrode solution. At a constant bath temperature of 37° C., a mixed gas (95% O2 -5% CO2) was bubbled through the bath. The sample was added and after 5 minutes of equillibration, acetylcholine (Daiichi Seiyaku, Japan) was added at a final concentration of 1×10^-7 M to induce contraction of the ileal strip. The contraction was recorded through an isotonic transducer (ME-4013, Suruga Electronics, Japan) on a recorder (Rectiholy 8K, Japan Electronics Sanei, Japan). The activity of the same was expressed in ED50 representing 50% inhibition of the maximal contraction.
SMILES,toxic signs (acute toxicity) [1],Properties (basicity and liposolubility) [2],IC50 [3] [nM],IC50 [4] [nM]
CC(C)=CCOc1ccc(C=C2CN(C)C3CN2C2(CCC(=O)CC2)C3)cc1 (stereo not shown) [Compound 1],no toxic signs were observed,Basic and liposoluble,5.7,8
CC(C)=CCOc1ccc(C=C2CN(C)C3CN2C2(CCC(=O)C(O)C2)C3)cc1 (stereo not shown) [Compound 2],no toxic signs were observed,Basic and liposoluble,0.13,13
CC(C)=CCOc1ccc(CC2=CN(C)C3CN2C2(CCC(=O)CC2)C3)cc1 (stereo not shown) [Compound 3],,Basic and liposoluble,,
CC(C)=CCOc1ccc(CC2CN(C)C3CN2C2(CCC(=O)CC2)C3)cc1 (stereo not shown) [Compound 4],,Basic and liposoluble,,
